# Test results taken from US11911353B2, “Fatty acid synthase inhibitor and application thereof” (Jiangnan University, priority 2019, dated 2024).
# Tests used:
# [1] = system: nematodes; experiment: Accumulation of lipid droplets in nematodes, oil red staining (FIG. 7); assay type: in vivo; conditions: 10 μM, 9 days
# Procedure: Nematodes are taken and resuspended in an M9 buffer, 3 ml of nematode suspension is added into each test tube, the compound shown as the formula I is added into an experimental group to make the final concentration reach 10 μM, a group with no addition of the compound shown as the formula I is used as a control, the suspension is subjected to shaking culture on a shaker at 200 rpm/min, oil red staining is carried out after 9 days, the suspension is placed on a glass slide for observing the lipid droplet condition under a microscope.
# [2] = system: prostate cancer cells PC3; experiment: Cell division of PC3 cells, CFSE flow cytometry (FIG. 4); assay type: cell-based; conditions: 10 μM, 24 hours, versus cells without compound
# Description: […]
# [3] = system: prostate cancer cells PC-3; experiment: MTT tumor proliferation IC50, PC-3; assay type: cell-based; conditions: 72 hours of incubation
# Description: IC50 (half maximal inhibitory concentration) refers to the half inhibitory concentration of a measured antagonist. It can indicate that a certain concentration of a certain drug or substance (inhibitor) induces tumor cell apoptosis by 50%, and this concentration is referred to as 50% inhibitory concentration, namely, the corresponding concentration when the ratio of apoptotic cells to the total number of cells is equal to 50%. The IC50 value can be used to measure the ability of a drug to induce apoptosis, that is, the higher the inducing ability, the lower the value, which also can indicate the tolerance degree of a certain cell to a drug on the contrary. • (1) Cells in the logarithmic phase are collected, the concentration of a cell suspension is adjusted, it is appropriate to place 100 μl cells in each well of a 96-well plate, the cells are inoculated into the plate to adjust the density of to-be-detected cells to be 1000-10000 cells/well, and edge wells are filled with sterile PBS. • (2) The cells are incubated under 5% CO2 at 37° C., an original culture medium is discarded after complete cell adherence, 200 μl of 1 wt % FBS culture medium containing 0.01 μM, 0.1 μM, 1 μM, 5 μM and 10 μM compound I-1 or cerulenin is added into each well, and there are 6 wells run in duplicate. An equal volume of DMSO is added as a negative control. • (3) After 72 hours of incubation, the cells are photographed for state recording, an original culture medium is discarded, and 100 μl of serum-free culture medium containing 0.5 mg/ml MTT (3-(4,5-dimethylthiazole-2)-2,5-diphenyltetrazolium bromide, trade name thiazolyl blue) is added into each well. • (4) After 2-4 hours of incubation, an original culture medium is discarded, and 150 μl of dimethyl sulfoxide (DMSO) is added into each well and shaken at 300 rpm for 10 minutes to fully dissolve purple crystals. • (5) The absorbance of each well at OD570 nm is measured by an enzyme-linked immunodetection instrument, the absorbance at OD630 nm is used as a reference, dual-wavelength measurement is carried out, and survival rate results are calculated according to the following formula: Cell survival rate=(OD570−OD630)/(OD570 negative control−OD630 negative control);
# wherein, OD570: OD570 value of each treatment group; OD630: OD630 value of each treatment group; OD570 control: OD570 value of the negative control group; OD630 control: OD630 value of the negative control group. • (6) The survival rate results are processed with graphpad 6.0 software according to the concentration gradient, the analysis mode is log (inhibitor) vs. Nonlinear regression (curve fit), and the calculated IC50 value is expressed as x+/−SD.
# The FASN enzyme activity measurement method shown in Experimental Example 18 is used to detect the effects of different substances on FASN enzyme activity. The method shown in Experimental Example 19 is used to detect the effects of different substances on the proliferation of tumor cells, cerulenin is used as a control, and the inhibition rates (%) of different substances on FASN enzyme activity and inhibition rates (IC50 nM) on tumor proliferation are calculated.
smiles,measurement,setting,value
O=C(CCCC(=O)Nc1ccc(Br)cc1)N/N=C/c1cc(Br)ccc1O [Compound I-1],accumulation of lipid droplets in nematodes,[1],significantly lower than that of the control group
same,split peak number (cell division),[2],significantly reduced
same,IC50,[3],9 nM
